Assay results reported in article PMC7594721, “Synthesis and biological activity of 2-cyanoacrylamide derivatives tethered to imidazopyridine as TAK1 inhibitors” (Journal of Enzyme Inhibition and Medicinal Chemistry, 2020).
“Also recorded” adds a separate entry of the source.

Columns and labels:
[1] = molecular target: T1, TAK1 (Homo sapiens, UniProt O43318); assay: TAK1 LanthaScreen Eu Kinase Binding Assay (Invitrogen; Table 1 calls it TAK1 enzymatic assay)
T1 construct: purchased Invitrogen (Thermo Fisher Scientific)
T1 sequence (O43318 with tags, fused parts or gaps limits assumed): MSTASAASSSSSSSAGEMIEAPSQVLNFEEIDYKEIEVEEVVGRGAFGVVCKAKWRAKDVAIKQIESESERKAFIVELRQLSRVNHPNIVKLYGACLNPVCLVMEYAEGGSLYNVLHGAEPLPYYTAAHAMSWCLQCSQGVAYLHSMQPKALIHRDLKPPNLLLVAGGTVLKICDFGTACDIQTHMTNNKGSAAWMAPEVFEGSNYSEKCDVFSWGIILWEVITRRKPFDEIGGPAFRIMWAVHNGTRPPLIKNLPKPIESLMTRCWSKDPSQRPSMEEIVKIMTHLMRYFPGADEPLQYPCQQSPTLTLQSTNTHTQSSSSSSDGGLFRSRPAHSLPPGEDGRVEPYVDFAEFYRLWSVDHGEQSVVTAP
Method: (§1) Kinase assays were performed by Invitrogen (now Thermo Fisher Scientific, Waltham, MA) or Reaction Biology Corp. (Malvern, PA). Inhibitory activity of compounds for TAK1 was evaluated using LanthaScreen® Eu Kinase Binding Assay (Invitrogen, Waltham, MA). The kinase profile of compound 13h was determined by the kinase HotSpot Profiling service of Reaction Biology Corporation. All assays were performed at Km for ATP.
Table 1. TAK1 enzymatic assay with imidazopyridine derivatives. ^a In-vitro enzymatic assay data obtained from Invitrogen^TM.

[2] = molecular target: T2, ASK1/MAP3K5 (Homo sapiens, UniProt Q99683); assay: Kinase HotSpot profiling (Reaction Biology Corp.); format: biochemical; settings: ATP at Km
T2 construct: purchased Reaction Biology Corp
T2 sequence (Q99683 1-1374): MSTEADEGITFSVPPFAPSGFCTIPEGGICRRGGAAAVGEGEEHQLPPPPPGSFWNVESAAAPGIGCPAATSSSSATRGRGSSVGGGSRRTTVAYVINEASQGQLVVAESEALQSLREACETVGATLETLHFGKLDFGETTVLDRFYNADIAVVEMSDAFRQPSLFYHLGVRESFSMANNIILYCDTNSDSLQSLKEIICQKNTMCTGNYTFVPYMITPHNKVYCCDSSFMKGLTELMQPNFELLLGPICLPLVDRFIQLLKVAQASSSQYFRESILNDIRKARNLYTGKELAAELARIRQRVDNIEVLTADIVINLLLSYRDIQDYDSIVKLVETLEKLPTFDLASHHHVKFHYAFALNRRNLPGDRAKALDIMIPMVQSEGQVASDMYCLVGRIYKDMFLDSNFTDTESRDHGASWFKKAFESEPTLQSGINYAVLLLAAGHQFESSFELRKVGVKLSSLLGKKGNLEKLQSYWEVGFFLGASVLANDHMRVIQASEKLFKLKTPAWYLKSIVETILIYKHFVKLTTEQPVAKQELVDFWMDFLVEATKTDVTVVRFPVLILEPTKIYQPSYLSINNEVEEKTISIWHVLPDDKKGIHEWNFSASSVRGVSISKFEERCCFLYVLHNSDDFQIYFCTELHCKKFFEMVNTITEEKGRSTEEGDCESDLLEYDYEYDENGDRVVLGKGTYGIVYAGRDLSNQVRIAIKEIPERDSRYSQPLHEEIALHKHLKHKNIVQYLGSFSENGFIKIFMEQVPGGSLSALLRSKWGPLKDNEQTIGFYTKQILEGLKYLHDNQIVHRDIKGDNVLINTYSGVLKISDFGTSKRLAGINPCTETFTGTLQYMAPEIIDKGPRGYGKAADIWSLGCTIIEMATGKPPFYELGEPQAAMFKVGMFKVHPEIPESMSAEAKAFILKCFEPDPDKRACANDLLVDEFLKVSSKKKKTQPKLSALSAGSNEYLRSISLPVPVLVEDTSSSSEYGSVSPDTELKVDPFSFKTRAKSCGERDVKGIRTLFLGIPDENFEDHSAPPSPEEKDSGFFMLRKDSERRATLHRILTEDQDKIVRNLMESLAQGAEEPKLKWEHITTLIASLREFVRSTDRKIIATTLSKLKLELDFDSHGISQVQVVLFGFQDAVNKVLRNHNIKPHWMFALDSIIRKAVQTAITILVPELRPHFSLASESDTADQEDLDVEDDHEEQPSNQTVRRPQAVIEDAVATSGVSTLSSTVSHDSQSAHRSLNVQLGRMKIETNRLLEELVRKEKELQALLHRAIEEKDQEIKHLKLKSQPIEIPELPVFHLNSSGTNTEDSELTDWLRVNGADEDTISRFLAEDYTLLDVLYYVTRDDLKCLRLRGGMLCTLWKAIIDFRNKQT
Method: as §1

[3] = molecular target: T3, BRAF (Homo sapiens, UniProt P15056); assay: Kinase HotSpot profiling (Reaction Biology Corp.); format: biochemical; settings: ATP at Km
T3 construct: purchased Reaction Biology Corp
Method: as §1

[4] = molecular target: T4, MEK1/MAP2K1 (Homo sapiens, UniProt Q02750); assay: Kinase HotSpot profiling (Reaction Biology Corp.); format: biochemical; settings: ATP at Km
T4 construct: purchased Reaction Biology Corp
Method: as §1

[5] = molecular target: T5, MEK2/MAP2K2 (Homo sapiens, UniProt P36507); assay: Kinase HotSpot profiling (Reaction Biology Corp.); format: biochemical; settings: ATP at Km
T5 construct: purchased Reaction Biology Corp
Method: as §1

[6] = molecular target: T6, MEKK1 (Homo sapiens, UniProt Q13233); assay: Kinase HotSpot profiling (Reaction Biology Corp.); format: biochemical; settings: ATP at Km
T6 construct: purchased Reaction Biology Corp
Method: as §1

[7] = molecular target: T7, MINK1/MAP4K6 (Homo sapiens, UniProt Q8N4C8); assay: Kinase HotSpot profiling (Reaction Biology Corp.); format: biochemical; settings: ATP at Km
T7 construct: purchased Reaction Biology Corp
Method: as §1

[8] = molecular target: T8, MLK1/MAP3K9 (Homo sapiens, UniProt P80192); assay: Kinase HotSpot profiling (Reaction Biology Corp.); format: biochemical; settings: ATP at Km
T8 construct: purchased Reaction Biology Corp
Method: as §1

[9] = tested on: MDA-MB-231 cells; assay: Caspase-3/7 assay (Apo-ONE); format: cell-based; settings: 0.5 µM, presence of TNFα (10 ng/ml), 24 h, MDA-MB-231
Method: MDA-MB-231 cells were obtained from the Korean Cell Line Bank. Cells were cultured in Roswell Park Memorial Institute (RPMI) 1640 medium containing 10% foetal bovine serum and 1% penicillin/streptomycin at 37 °C with 5% CO2 under humidified atmosphere.
The assay was performed using Apo-ONE® Homogeneous Caspase-3/7 Assay kits (Catalogue No. G7790, Promega, Madison, WI). MDA-MB-231 cells in a concentration of 5000 cells/100 µl were seeded in each well of a black 96-well plate and starved after adhering to the plate. The cells were incubated for 24 h, and the serum-starved cells were treated with either Takinib or 13h in the presence or absence of TNFα (10 ng/ml). All samples and the control contained DMSO in a final concentration of 0.5%. After another 24 h of incubation, 100 µL of Apo-ONE® caspase-3/7 reagent was added to each well, and the cells were incubated at room temperature in darkness for 2 h. Fluorescence was then measured at 530 nm with excitation at 485 nm using a FlexStation 3 Multi-Mode microplate reader (Molecular Devices). Statistical analyses of the data included a one-way ANOVA, followed by Tukey’s multiple comparison test.

T3 sequence (P15056 whole entry): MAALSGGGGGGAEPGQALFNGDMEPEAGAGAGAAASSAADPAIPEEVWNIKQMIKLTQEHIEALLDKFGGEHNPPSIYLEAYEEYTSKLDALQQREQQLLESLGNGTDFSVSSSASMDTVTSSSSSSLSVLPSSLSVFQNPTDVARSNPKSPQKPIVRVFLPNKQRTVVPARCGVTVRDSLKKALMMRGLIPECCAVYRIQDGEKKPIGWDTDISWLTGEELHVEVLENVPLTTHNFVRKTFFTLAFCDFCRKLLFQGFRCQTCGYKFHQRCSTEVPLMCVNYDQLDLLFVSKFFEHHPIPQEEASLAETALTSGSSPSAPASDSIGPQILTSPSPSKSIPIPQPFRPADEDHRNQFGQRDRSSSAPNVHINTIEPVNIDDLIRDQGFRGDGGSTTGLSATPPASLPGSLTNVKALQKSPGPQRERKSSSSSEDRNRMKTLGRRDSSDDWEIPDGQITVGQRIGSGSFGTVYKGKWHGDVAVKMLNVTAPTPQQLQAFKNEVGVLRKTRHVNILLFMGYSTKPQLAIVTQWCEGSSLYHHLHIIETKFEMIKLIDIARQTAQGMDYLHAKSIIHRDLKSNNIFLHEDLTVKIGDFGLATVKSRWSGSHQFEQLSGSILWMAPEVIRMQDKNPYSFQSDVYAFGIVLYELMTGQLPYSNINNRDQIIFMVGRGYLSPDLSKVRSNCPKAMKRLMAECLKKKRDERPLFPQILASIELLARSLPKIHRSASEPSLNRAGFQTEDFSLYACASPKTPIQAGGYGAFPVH
T5 sequence (P36507 whole entry): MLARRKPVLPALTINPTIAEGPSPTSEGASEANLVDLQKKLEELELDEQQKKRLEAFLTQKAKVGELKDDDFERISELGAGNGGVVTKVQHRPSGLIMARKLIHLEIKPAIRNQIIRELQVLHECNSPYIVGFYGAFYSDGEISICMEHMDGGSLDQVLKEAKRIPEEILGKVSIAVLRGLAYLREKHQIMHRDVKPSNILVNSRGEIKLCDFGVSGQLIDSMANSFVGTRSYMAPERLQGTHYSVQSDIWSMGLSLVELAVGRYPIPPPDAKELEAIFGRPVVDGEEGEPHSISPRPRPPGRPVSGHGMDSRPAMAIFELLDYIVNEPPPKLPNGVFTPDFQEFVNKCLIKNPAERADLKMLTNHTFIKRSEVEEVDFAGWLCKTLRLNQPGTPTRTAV
T4 sequence (Q02750 whole entry): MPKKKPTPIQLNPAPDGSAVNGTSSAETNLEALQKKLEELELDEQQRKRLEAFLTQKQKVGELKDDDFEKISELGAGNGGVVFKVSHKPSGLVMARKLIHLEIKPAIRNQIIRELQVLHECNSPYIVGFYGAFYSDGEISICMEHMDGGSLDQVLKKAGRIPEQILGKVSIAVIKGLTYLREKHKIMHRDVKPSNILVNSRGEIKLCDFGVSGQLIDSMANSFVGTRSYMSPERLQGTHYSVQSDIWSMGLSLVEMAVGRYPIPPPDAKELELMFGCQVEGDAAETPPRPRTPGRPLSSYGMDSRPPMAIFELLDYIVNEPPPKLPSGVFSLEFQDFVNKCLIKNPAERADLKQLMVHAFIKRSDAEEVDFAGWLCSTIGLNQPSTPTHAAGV
T8 sequence (P80192 whole entry): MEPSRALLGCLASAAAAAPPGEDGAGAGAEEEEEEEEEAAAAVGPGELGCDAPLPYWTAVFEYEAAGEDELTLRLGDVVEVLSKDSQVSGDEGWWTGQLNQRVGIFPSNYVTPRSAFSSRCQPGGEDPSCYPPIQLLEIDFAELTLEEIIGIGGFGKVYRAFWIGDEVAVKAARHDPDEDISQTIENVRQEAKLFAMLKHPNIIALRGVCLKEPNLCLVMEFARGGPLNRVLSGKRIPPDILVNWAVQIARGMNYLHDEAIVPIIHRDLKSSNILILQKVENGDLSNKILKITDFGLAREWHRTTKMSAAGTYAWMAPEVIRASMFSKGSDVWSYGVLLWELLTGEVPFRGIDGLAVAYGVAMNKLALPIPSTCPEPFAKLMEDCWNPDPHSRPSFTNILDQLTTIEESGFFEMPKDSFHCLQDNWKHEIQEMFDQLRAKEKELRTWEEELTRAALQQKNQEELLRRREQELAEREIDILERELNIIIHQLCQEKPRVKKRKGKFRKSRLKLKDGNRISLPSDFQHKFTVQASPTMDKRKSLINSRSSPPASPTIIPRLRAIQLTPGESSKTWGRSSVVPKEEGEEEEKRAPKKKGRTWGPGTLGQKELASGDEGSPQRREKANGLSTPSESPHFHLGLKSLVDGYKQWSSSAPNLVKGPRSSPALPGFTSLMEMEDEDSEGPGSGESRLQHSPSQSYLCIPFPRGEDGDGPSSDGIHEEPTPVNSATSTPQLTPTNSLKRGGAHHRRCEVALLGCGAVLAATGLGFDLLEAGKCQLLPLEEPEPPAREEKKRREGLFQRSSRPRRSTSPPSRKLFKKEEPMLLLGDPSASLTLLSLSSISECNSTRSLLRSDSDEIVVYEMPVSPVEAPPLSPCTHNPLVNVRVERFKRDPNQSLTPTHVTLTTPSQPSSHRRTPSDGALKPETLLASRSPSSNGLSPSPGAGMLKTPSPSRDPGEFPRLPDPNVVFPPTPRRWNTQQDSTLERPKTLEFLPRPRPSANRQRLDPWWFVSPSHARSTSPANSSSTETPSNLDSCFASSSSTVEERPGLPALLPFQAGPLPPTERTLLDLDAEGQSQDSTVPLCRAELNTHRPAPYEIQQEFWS
T7 sequence (Q8N4C8 whole entry): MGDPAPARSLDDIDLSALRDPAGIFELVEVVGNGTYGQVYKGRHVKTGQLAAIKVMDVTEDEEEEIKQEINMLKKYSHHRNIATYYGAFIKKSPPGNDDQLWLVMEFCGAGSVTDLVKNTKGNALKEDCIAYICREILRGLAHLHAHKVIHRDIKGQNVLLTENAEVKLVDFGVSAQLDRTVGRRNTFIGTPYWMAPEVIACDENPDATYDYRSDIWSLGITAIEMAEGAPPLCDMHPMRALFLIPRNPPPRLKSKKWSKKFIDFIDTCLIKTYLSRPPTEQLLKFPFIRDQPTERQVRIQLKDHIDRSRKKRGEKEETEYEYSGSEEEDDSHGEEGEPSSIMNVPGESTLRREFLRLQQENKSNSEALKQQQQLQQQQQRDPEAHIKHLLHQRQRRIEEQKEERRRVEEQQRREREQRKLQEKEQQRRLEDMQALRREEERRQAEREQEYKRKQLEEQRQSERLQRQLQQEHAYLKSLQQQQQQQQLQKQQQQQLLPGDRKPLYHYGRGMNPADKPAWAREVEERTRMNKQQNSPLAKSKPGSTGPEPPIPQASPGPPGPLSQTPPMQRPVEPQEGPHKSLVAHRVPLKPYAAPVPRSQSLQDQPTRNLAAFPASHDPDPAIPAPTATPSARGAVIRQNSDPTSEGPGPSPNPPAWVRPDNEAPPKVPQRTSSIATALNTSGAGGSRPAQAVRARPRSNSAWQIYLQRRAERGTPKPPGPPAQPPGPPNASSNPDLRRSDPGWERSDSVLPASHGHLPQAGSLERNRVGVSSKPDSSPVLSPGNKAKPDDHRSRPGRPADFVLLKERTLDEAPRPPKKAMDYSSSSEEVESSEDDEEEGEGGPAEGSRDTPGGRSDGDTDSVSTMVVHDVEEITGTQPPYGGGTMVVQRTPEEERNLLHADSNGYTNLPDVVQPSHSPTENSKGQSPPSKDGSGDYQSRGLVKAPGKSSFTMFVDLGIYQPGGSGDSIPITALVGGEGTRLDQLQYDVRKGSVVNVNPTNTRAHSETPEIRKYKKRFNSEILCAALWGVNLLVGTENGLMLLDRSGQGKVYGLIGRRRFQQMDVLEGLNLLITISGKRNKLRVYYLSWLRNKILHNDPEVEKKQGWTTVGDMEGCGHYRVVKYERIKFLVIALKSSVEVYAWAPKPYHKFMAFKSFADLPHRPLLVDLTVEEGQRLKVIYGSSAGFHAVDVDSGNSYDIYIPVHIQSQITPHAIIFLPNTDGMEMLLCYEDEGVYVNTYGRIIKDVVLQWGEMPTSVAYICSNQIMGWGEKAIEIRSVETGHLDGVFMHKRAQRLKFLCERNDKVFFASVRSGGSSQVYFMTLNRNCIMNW

IC50 ([1]; read-out: IC50 against TAK1): 27 nM
inhibition at 1 µM [2]: 4%
inhibition at 1 µM [3]: 0%
inhibition at 1 µM [4]: 10 ± 0.7%
inhibition at 1 µM [5]: 23 ± 1.9%
inhibition at 1 µM [6]: 12 ± 0.7%
inhibition at 1 µM [7]: 15 ± 2.4%
inhibition at 1 µM [8]: 35 ± 1.2%
SMILES: Cc1cccc(/C=C(\C#N)C(=O)N[C@@H]2CCN(c3c(Cl)cnc4[nH]c(-c5ccc(N6CCN(C)CC6)cc5)nc34)C2)n1 [Compound 13h, (R,E)-N-(1–(6-chloro-2–(4-(4-methylpiperazin-1-yl)phenyl)-3H-imidazo[4,5-b]pyridin-7-yl)pyrrolidin-3-yl)-2-cyano-3-(6-methylpyridin-2-yl)acrylamide]
TAK1 potency, SAR result in words ([1]; Table 1 SAR discussion): maintained or improved potency; also recorded: excellent
caspase-3/7 activity [9]: induced significant caspase activation
